# Source: US10646600B2, “HER2 polypeptides useful for imaging and monitoring tumors and cancers” (GE HEALTHCARE LIMITED, priority 2013, dated 2020)
# Read-outs that look alike come from different tables or passages of the source.
# Tested on: human p95HER2
# Experiment: Surface Plasmon Resonance, p95HER2 ECD-Fc-6×His
# Assay type: binding
# Method: To characterize the affinity of [^19F]GE-226[SEQ ID NO 1] to HER2 protein, Surface Plasmon Resonance studies were conducted. Human, rhesus and rat HER2-ECD-Fc (SINO Biological, Beijing, China, Cat. Nr: 10004-H02H, 90020-K02H, and 80079-R02H), as well as human HER2-ECD-Fc-6×His (R&D Systems, Minneapolis, Minn., Cat. Nr: 1129-ER) and p95HER2 ECD-Fc-6×His (Syngene, Cambridge, United Kingdom) were diluted with 50 mM sodium acetate pH 4.5 (Biacore (GE Healthcare, Buckinghamshire, UK) coupling buffer) to a final concentration of 10 μg/mL. Antigen coupling to Biacore sensor chip CMS (Cat. Nr: BR-1005-30) was done according to amine coupling protocol from the instrument manual […]. HBS-EP buffer (10 mM HEPES pH 7.4, 150 mM NaCl, 3 mM EDTA and 0.005% surfactant P20; GE Healthcare, Little Chalfont, United Kingdom, Cat. Nr: BR-1006-69) was used as running buffer and as solvent for the substances. The affinity studies were performed using a Biacore T100 (GE Healthcare). [^19F]GE-226 was diluted in HBS-EP buffer to 50 nM, 25 nM, 12.5 nM, 6.25 nM, 3.125 nM, 1.56 nM, 0.78 nM, 0.39 nM, 0.195 nM, 0.097 nM, 0.049 nM and 0 nM. The flow cells of the first chip comprised of blank, human HER2-ECD-Fc-6×His, p95HER2-ECD-Fc-6×His batch I and p95HER2-ECD-Fc-6×His batch II. The flow cells on the second chip contained blank, human HER2-ECD-Fc, rhesus HER2-ECD-Fc and rat HER2 ECD-Fc. […]
substance,measurement,setting,value
"[^19F]GE-226: cold unlabeled non-radioactive 19F analogue of the tracer, used for SPR and blocking",interaction with human p95HER2 (words),,did not interact
same,interaction with human p95HER2 (words),listed as 19F-Affibody analogue,did not interact
